Values of other authors, collected in PMC11246588, “New 1,2,4-oxadiazole derivatives as potential multifunctional agents for the treatment of Alzheimer’s disease: design, synthesis, and biological evaluation” (BMC Chemistry, 2024).

What was measured:
Parameters in all cases: method as in PMID 18550375, PMID 33017743, PMID 36223681, PMID 34752955, PMID 26077890
Conditions in all cases: Fig. 1; ref [50]–[55]; cited from earlier work
hMAO B = test system: hMAO B
BChE = test system: BChE
Aβ self-aggregation = test system: Aβ self-aggregation

Structure (SMILES)	IC50 (hMAO B)	IC50 (BChE)	Inhibited Aβ self-aggregation (Aβ self-aggregation)
COc1cc(-c2ccc(-c3nc(-c4ccc5[nH]ncc5c4)no3)cc2)cc(OC)c1OC [VI]	52 nM	–	–
O=C(CNc1ccc(F)cc1)Nc1ccc(-c2nc(-c3ccnc(Nc4ccc(OC(F)(F)F)cc4)c3)no2)cc1 [IV]	–	1280 nM	51.91%
